Reference: patent publication US12685761B2, “VIP and VIP agonists, nanoparticles, and uses in inflammatory T-cell mediated disease” (Emory University, priority 2018, dated 2026)

Test system: VIP-KO B6 recipients
Assay: Short-term VIP administration in allo-BMT GvHD lethality model (FIG. 4)
Format: in vivo, mice
Details: VIP 10 μgram/day vs PBS from day 0 to day 10; lethally irradiated VIP-KO B6 recipients infused with 5M TCD BM plus 3×10^6 B10.BR T cells
Description: Lethally irradiated WT and VIP-KO B6 recipients were infused with 5M TCD BM plus 3×10^6 B10.BR T cells.

## vasoactive intestinal peptide [VIP]
  acute GvHD mortality after allo-BMT: rescued VIP-KO recipients from acute GvHD mortality
